Laboratory results taken from patent US20210137886A1, “INHIBITORS OF METALLO-BETA-LACTAMASES” (Oxford University Innovation Limited, priority 2017, published 2021).

What was measured:
[1] = test system: Klebsiella pneumoniae NDM-1; experiment: Meropenem MIC, CLSI broth or agar microdilution, strain entry 6; type: cell-based; settings: strain entry 6, Klebsiella pneumoniae NDM-1
Source text: (§1) In each case DMSO was used to dissolve inhibitors.

[2] = target: VIM-1 (Veronese metallo-β-lactamase-1) (Pseudomonas aeruginosa, UniProt A0A0F7KYQ8); experiment: Metallo-β-lactamase enzyme inhibition, standard assay protocol
[3] = test system: Klebsiella pneumoniae NDM-1 + DHA + CTX − M-15; experiment: Meropenem MIC, CLSI broth or agar microdilution, strain entry 7; type: cell-based
[4] = test system: Klebsiella pneumoniae VIM-1; experiment: Meropenem MIC, CLSI broth or agar microdilution, strain entry 4; type: cell-based
E. coli VIM-1 = experiment: Meropenem MIC, CLSI broth or agar microdilution, strain entry 3; type: cell-based; settings: strain entry 3, E. coli VIM-1
Source text: as §1

IMP-1 (Imipenemase-1) = IMP-1 (Imipenemase-1) (Serratia marcescens, UniProt P52699); experiment: Metallo-β-lactamase enzyme inhibition, standard assay protocol
[5] = test system: Pseudomonas aeruginosa VIM-2; experiment: Meropenem MIC, CLSI broth or agar microdilution, strain entry 5; type: cell-based; settings: strain entry 5, Pseudomonas aeruginosa VIM-2
Source text: as §1

[6] = target: VIM-2 (Veronese metallo-β-lactamase-2) (Escherichia coli, UniProt Q5U7L7); experiment: Metallo-β-lactamase enzyme inhibition, standard assay protocol
E. coli IMP-4 = experiment: Meropenem MIC, CLSI broth or agar microdilution, strain entry 2; type: cell-based
[7] = target: NDM-1 (New Delhi metallo-β-lactamase-1) (Klebsiella pneumoniae, UniProt C7C422); experiment: Metallo-β-lactamase enzyme inhibition, standard assay protocol
[8] = test system: Klebsiella pneumoniae IMP-4; experiment: Meropenem MIC, CLSI broth or agar microdilution, strain entry 1; type: cell-based

Chain of IMP-1 (Imipenemase-1) (P52699 19-246, looked up, species assumed): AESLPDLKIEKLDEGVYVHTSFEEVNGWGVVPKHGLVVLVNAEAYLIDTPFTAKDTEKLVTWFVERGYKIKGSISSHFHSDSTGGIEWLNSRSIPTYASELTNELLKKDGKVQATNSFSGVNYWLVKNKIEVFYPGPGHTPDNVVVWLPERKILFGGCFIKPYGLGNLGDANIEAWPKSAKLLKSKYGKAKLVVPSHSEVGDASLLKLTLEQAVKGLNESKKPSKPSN
Chain of NDM-1 (New Delhi metallo-β-lactamase-1) (C7C422 29-270, looked up, species assumed): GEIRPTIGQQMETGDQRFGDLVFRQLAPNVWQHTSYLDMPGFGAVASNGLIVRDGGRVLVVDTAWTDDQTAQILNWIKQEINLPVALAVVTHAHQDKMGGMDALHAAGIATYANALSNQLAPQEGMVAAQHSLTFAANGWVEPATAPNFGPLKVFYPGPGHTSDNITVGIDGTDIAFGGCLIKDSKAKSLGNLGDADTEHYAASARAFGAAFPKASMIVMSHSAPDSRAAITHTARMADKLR

Structure (SMILES)	Change in MIC value of meropenem ([1]; 2 mg/L inhibitor)	Change in MIC value of meropenem ([1]; 4 mg/L inhibitor)	Change in MIC value of meropenem ([1]; 8 mg/L inhibitor)	IC50 [2]	Change in MIC value of meropenem ([3]; 2 mg/L inhibitor)	Change in MIC value of meropenem ([3]; 4 mg/L inhibitor)	Change in MIC value of meropenem ([3]; 8 mg/L inhibitor)	Change in MIC value of meropenem ([4]; 2 mg/L inhibitor)	Change in MIC value of meropenem ([4]; 4 mg/L inhibitor)	Change in MIC value of meropenem ([4]; 8 mg/L inhibitor)	Change in MIC value of meropenem (E. coli VIM-1; 2 mg/L inhibitor)	Change in MIC value of meropenem (E. coli VIM-1; 4 mg/L inhibitor)	Change in MIC value of meropenem (E. coli VIM-1; 8 mg/L inhibitor)	IC50 (IMP-1 (Imipenemase-1))	Change in MIC value of meropenem ([5]; 2 mg/L inhibitor)	Change in MIC value of meropenem ([5]; 4 mg/L inhibitor)	Change in MIC value of meropenem ([5]; 8 mg/L inhibitor)	IC50 [6]	Change in MIC value of meropenem (E. coli IMP-4; 2 mg/L inhibitor)	Change in MIC value of meropenem (E. coli IMP-4; 4 mg/L inhibitor)	further results
CC(C)c1csc2c(-c3ccc(F)cc3)c(C(=O)O)[nH]c12 [Example 12, 3-isopropyl-6-(4-fluorophenyl)-4H-thieno-[3,2-b]pyrrole-5-carboxylic acid]	−1 log2 difference	−1 log2 difference	−2 log2 difference	631 nM	−1 log2 difference	−2 log2 difference	−3 log2 difference	−2 log2 difference	−2 log2 difference	−2 log2 difference	−1 log2 difference	−1 log2 difference	−1 log2 difference	50.1 nM	0 log2 difference	0 log2 difference	0 log2 difference	39.8 nM	−2 log2 difference	−2 log2 difference	Change in MIC value of meropenem (E. coli IMP-4; 8 mg/L inhibitor): −3 log2 difference; IC50 [7]: 50.1 nM; Change in MIC value of meropenem ([8]; 2 mg/L inhibitor): −2 log2 difference; Change in MIC value of meropenem ([8]; 4 mg/L inhibitor): −2 log2 difference; Change in MIC value of meropenem ([8]; 8 mg/L inhibitor): −2 log2 difference
O=C(O)c1[nH]c2c(C3CC3)csc2c1-c1ccc(F)cc1 [Example 13, 3-cyclopropyl-6-(4-fluorophenyl)-4H-thieno-[3,2-b]pyrrole-5-carboxylic acid]	−1 log2 difference	−1 log2 difference	−2 log2 difference	1580 nM	−2 log2 difference	−2 log2 difference	−2 log2 difference	−2 log2 difference	−2 log2 difference	−2 log2 difference	−1 log2 difference	−1 log2 difference	−1 log2 difference	398 nM	0 log2 difference	0 log2 difference	0 log2 difference	79.4 nM	−2 log2 difference	−2 log2 difference	Change in MIC value of meropenem (E. coli IMP-4; 8 mg/L inhibitor): −2 log2 difference; IC50 [7]: 50.1 nM; Change in MIC value of meropenem ([8]; 2 mg/L inhibitor): −2 log2 difference; Change in MIC value of meropenem ([8]; 4 mg/L inhibitor): −2 log2 difference; Change in MIC value of meropenem ([8]; 8 mg/L inhibitor): −2 log2 difference
NS(=O)(=O)c1ccc(-c2c(C(=O)O)[nH]c3c(Br)csc23)cc1 [Example 14, 3-bromo-6-(4-sulfamoylphenyl)-4H-thieno-[3,2-b]pyrrole-5-carboxylic acid]	−1 log2 difference	−1 log2 difference	−2 log2 difference	3160 nM	−2 log2 difference	−2 log2 difference	−3 log2 difference	−1 log2 difference	−1 log2 difference	−1 log2 difference	−1 log2 difference	−1 log2 difference	−1 log2 difference	1260 nM	0 log2 difference	0 log2 difference	0 log2 difference	158 nM	−1 log2 difference	−1 log2 difference	Change in MIC value of meropenem (E. coli IMP-4; 8 mg/L inhibitor): −1 log2 difference; IC50 [7]: 63.1 nM; Change in MIC value of meropenem ([8]; 2 mg/L inhibitor): −1 log2 difference; Change in MIC value of meropenem ([8]; 4 mg/L inhibitor): −1 log2 difference; Change in MIC value of meropenem ([8]; 8 mg/L inhibitor): −1 log2 difference
